pIC50, pKi: −log10 of the molar value.
Experiments:
D(2) dopamine receptor [1] = biological target: T1, D(2) dopamine receptor (Homo sapiens, UniProt P14416); assay: Intrinsic activity from GTP shift using membranes from CHO cells transfected with mammalian dopamine receptor D2.; format: cell membranes
D(2) dopamine receptor [2] = biological target: T1, D(2) dopamine receptor; assay: Binding affinity against [3H]U-86,170-labeled dopamine receptor D2 in cloned CHO cells; format: cell-based
D(2) dopamine receptor [3] = biological target: T2, D(2) dopamine receptor (Rattus norvegicus, UniProt P61169); assay: Binding affinity against [3H]raclopride-labeled dopamine receptor D2 in rat striatum.; format: tissue-based
Mus musculus [4] = assay: Antagonism of apomorphine for 0-10 minutes in reserpinized mice when a dose of 3.5 micro mol/kg is administered intraperitoneally; format: functional
Mus musculus [5] = assay: Antagonism of apomorphine effects in reserpinized mice following 0.4 umol/kg i.p.; format: functional
Mus musculus [6] = assay: Antagonism of apomorphine effects for 0-10 minutes in reserpinized mice following 0.4 umol/kg i.p.; format: functional; parameters: unit not given beside the values
Mus musculus [7] = assay: Maximum decrease in temperature when compound is administered subcutaneously; format: functional
Mus musculus [8] = assay: Antagonism of apomorphine for 10-20 minutes in reserpinized mice when a dose of 3.5 micro mol/kg is administered intraperitoneally; format: functional
Mus musculus [9] = assay: Ability to stimulate dopaminergic systems by effect on locomotor activity in reserpinized mice when a dose of 35 micro mol/kg is administered intraperitoneally; format: functional
Mus musculus [10] = assay: Antagonism of apomorphine for 0-10 minutes in reserpinized mice when a dose of 35 micro mol/kg is administered intraperitoneally; format: functional
Mus musculus [11] = assay: Antagonism of apomorphine for 10-20 minutes in reserpinized mice when a dose of 35 micro mol/kg is administered intraperitoneally; format: functional
Mus musculus [12] = assay: Antagonism of apomorphine effects for 10-20 minutes in reserpinized mice following 0.4 umol/kg i.p.; format: functional
Mus musculus [13] = assay: Antagonism of apomorphine in reserpinized mice when a dose of 35 micro mol/kg is administered intraperitoneally; format: functional
Mus musculus [14] = assay: Ability to stimulate dopaminergic systems by effect on locomotor activity in reserpinized mice when a dose of 3.5 micro mol/kg is administered intraperitoneally; format: functional
Mus musculus [15] = assay: Increase in locomotor activity in reserpinized mice following 0.4 umol/kg i.p.; format: functional
Mus musculus [16] = assay: Antagonism of apomorphine in reserpinized mice when a dose of 3.5 micro mol/kg is administered intraperitoneally; format: functional
Mus musculus [17] = assay: Effective dose on hypothermia in mouse when administered subcutaneously; format: functional; settings: sc
Mus musculus [18] = assay: Antagonism of apomorphine in reserpinized mice when a dose of 38 micro mol/kg is administered intraperitoneally; format: functional
Mus musculus [19] = assay: Antagonism of apomorphine for 10-20 minutes in reserpinized mice when a dose of 38 micro mol/kg is administered intraperitoneally; format: functional
Mus musculus [20] = assay: Ability to stimulate dopaminergic systems by effect on locomotor activity in reserpinized mice when a dose of 3.8 micro mol/kg is administered intraperitoneally; format: functional
Mus musculus [21] = assay: Antagonism of apomorphine for 0-10 minutes in reserpinized mice when a dose of 38 micro mol/kg is administered intraperitoneally; format: functional
Mus musculus [22] = assay: Antagonism of apomorphine for 0-10 minutes in reserpinized mice when a dose of 3.8 micro mol/kg is administered intraperitoneally; format: functional
Mus musculus [23] = assay: Ability to stimulate dopaminergic systems by effect on locomotor activity in reserpinized mice when a dose of 38 micro mol/kg is administered intraperitoneally; format: functional
Mus musculus [24] = assay: Antagonism of apomorphine in reserpinized mice when a dose of 3.8 micro mol/kg is administered intraperitoneally; format: functional
Mus musculus [25] = assay: Antagonism of apomorphine for 10-20 minutes in reserpinized mice when a dose of 3.8 micro mol/kg is administered intraperitoneally; format: functional
D(2) dopamine receptor [26] = biological target: T2, D(2) dopamine receptor; assay: Inhibitory concentration against [3H]raclopride-labeled dopamine receptor D2 in rat striatum; format: tissue-based
Mus musculus [27] = assay: Effective dose on hypothermia in mouse when administered through peroral route; format: functional; settings: po
Mus musculus [28] = assay: Maximum decrease in temperature when compound is administered through peroral route; format: functional
Rattus norvegicus [29] = assay: Inhibition of firing rates of dopaminergic neurons in the substantia nigra pars compacta by intravenous injection in rats.; format: functional; settings: Rattus norvegicus, Substantia nigra pars compacta, iv; read-out: ED50
Mus musculus [30] = assay: Antagonism of apomorphine for 10-20 minutes in reserpinized mice when a dose of 36 micro mol/kg is administered intraperitoneally; format: functional
Mus musculus [31] = assay: Antagonism of apomorphine for 0-10 minutes in reserpinized mice when a dose of 3.6 micro mol/kg is administered intraperitoneally; format: functional
Mus musculus [32] = assay: Antagonism of apomorphine for 0-10 minutes in reserpinized mice when a dose of 36 micro mol/kg is administered intraperitoneally; format: functional
Mus musculus [33] = assay: Time of effect in the isolation-induced aggression behavioral assay in the mouse when a dose of 36 micro mol/kg is administered perorally; format: functional
Mus musculus [34] = assay: Time of effect in the face-to-face behavioral assay in the mouse when a dose of 36 micro mol/kg is administered perorally; format: functional
Mus musculus [35] = assay: Antagonism of apomorphine for 10-20 minutes in reserpinized mice when a dose of 3.6 micro mol/kg is administered intraperitoneally; format: functional
Mus musculus [36] = assay: Time of effect in the face-to-face behavioral assay in the mouse when a dose of 0.4 micro mol/kg is administered perorally; format: functional
Mus musculus [37] = assay: Antagonism of apomorphine in reserpinized mice when a dose of 3.6 micro mol/kg is administered intraperitoneally; format: functional
Mus musculus [38] = assay: Time of effect in the face-to-face behavioral assay in the mouse when a dose of 0.0 micro mol/kg is administered perorally; format: functional
Mus musculus [39] = assay: Time of effect in the isolation-induced aggression behavioral assay in the mouse when a dose of 0.0 micro mol/kg is administered perorally; format: functional
Mus musculus [40] = assay: Ability to stimulate dopaminergic systems by effect on locomotor activity in reserpinized mice when a dose of 36 micro mol/kg is administered intraperitoneally; format: functional
Mus musculus [41] = assay: Time of effect in the face-to-face behavioral assay in the mouse when a dose of 3.6 micro mol/kg is administered perorally; format: functional
Mus musculus [42] = assay: Ability to stimulate dopaminergic systems by effect on locomotor activity in reserpinized mice when a dose of 3.6 micro mol/kg is administered intraperitoneally; format: functional
Mus musculus [43] = assay: Antagonism of apomorphine in reserpinized mice when a dose of 36 micro mol/kg is administered intraperitoneally; format: functional
Rattus norvegicus [44] = assay: Inhibition of firing rates of serotonergic neurons in the dorsal raphe nucleus by intravenous injection in rats; format: functional
Rattus norvegicus [45] = assay: Inhibition of firing rates of dopaminergic neurons in the substantia nigra pars compacta by intravenous injection in rats; format: functional

T1 sequence (P14416 whole entry): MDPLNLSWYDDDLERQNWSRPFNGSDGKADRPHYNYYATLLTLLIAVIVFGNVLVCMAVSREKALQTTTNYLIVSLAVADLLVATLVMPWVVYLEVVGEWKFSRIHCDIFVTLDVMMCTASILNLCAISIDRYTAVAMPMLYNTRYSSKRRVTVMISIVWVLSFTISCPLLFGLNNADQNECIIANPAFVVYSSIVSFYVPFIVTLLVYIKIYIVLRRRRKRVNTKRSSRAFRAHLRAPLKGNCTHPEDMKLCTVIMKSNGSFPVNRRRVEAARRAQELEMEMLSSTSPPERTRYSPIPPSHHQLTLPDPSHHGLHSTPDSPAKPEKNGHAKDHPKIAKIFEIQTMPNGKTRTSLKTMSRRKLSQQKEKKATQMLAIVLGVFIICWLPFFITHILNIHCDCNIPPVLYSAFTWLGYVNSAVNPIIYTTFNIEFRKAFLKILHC
T2 sequence (P61169 whole entry): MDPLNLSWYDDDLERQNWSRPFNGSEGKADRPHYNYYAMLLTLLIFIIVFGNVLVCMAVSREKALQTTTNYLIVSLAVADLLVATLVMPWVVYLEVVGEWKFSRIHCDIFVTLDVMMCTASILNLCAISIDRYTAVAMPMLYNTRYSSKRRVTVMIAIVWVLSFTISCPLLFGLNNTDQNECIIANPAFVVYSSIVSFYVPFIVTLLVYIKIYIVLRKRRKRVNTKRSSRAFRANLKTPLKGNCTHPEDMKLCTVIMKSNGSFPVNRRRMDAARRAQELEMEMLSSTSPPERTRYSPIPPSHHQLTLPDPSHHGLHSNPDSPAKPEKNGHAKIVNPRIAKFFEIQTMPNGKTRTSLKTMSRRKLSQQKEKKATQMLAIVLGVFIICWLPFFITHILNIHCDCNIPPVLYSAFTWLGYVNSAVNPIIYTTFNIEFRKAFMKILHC

| SMILES | Intrinsic activity (D(2) dopamine receptor [1]) [%] | pKi (D(2) dopamine receptor [2]) | pKi (D(2) dopamine receptor [3]) | Locomotor activity (Mus musculus [5]) | Locomotor activity (Mus musculus [6]) | Max temperature decrease (Mus musculus [7]) | Locomotor activity (Mus musculus [12]) | Locomotor activity (Mus musculus [15]) | ED50 (Mus musculus [17]) [µmol/kg] | Locomotor activity (Mus musculus [18]) | Locomotor activity (Mus musculus [19]) | Locomotor activity (Mus musculus [20]) | Locomotor activity (Mus musculus [21]) | Locomotor activity (Mus musculus [22]) | Locomotor activity (Mus musculus [23]) | Locomotor activity (Mus musculus [24]) | Locomotor activity (Mus musculus [25]) | also measured |
| --- | --- | --- | --- | --- | --- | --- | --- | --- | --- | --- | --- | --- | --- | --- | --- | --- | --- | --- |
| CCCN1CC[C@H]2c3cccc(O)c3CC[C@H]21 (racemic) | 1 | 6.66 | < 6.00 | – | – | – | – | – | – | – | – | – | – | – | – | – | – | – |
| CCCN1CC[C@@H]2c3cccc(OC)c3CC[C@H]21 (racemic) | 0 | – | – | 188 | 87 | 3.9 | 123 | 1 | 34 | – | – | – | – | – | – | – | – | Locomotor activity (Mus musculus [4]): 64; Locomotor activity (Mus musculus [8]): 98; Locomotor activity (Mus musculus [9]): 27; Locomotor activity (Mus musculus [10]): 10; Locomotor activity (Mus musculus [11]): 34; Locomotor activity (Mus musculus [13]): 53; Locomotor activity (Mus musculus [14]): 6; Locomotor activity (Mus musculus [16]): 122 |
| C=CCN1CC[C@@H]2c3c(O)cccc3CC[C@H]21 (racemic) | 13 | 7.60 | – | 73 | 46 | – | 66 | 26 | – | 9 | 33 | 5 | 49 | 71 | 1 | 5 | 53 | – |
| C=CCN1CC[C@H]2c3cccc(O)c3CC[C@H]21 (racemic) | 29 | 7.12 | 6.70 | 130 | 101 | – | 111 | 0 | – | 21 | 52 | 8 | 32 | 88 | 12 | 111 | 111 | – |
| CCCN1CCC2c3c(O)cccc3CCC21 (racemic) | – | – | – | – | – | 8.8 | – | – | 2.1 | – | – | – | – | – | – | – | – | pIC50 (D(2) dopamine receptor [26]): < 6.00; ED50 (Mus musculus [27]): 154 µmol/kg; Max temperature decrease (Mus musculus [28]): 2.6 |
| C=CCN1CCC2c3cccc(O)c3CC[C@@H]21 (single isomer, unassigned; (+)) | 50 | 7.23 | 6.59 | 79 | 50 | – | 76 | 11 | – | 62 | 37 | 42 | 20 | 54 | 17 | 62 | 90 | ED50 (Rattus norvegicus [29]): 2.82 µmol/kg |
| C=CCN1CCC2c3c(cccc3OC)CC[C@@H]21 (single isomer, unassigned; (+)) | 17 | – | – | 103 | 83 | 3.9 | 92 | 8 | 62 | – | – | – | – | – | – | – | – | Locomotor activity (Mus musculus [30]): 67; Locomotor activity (Mus musculus [31]): 73; Locomotor activity (Mus musculus [32]): 54; Time (Mus musculus [33]): 21 s; Time (Mus musculus [34]): 1 s; Locomotor activity (Mus musculus [35]): 77; Time (Mus musculus [36]): 0.9 s; Locomotor activity (Mus musculus [37]): 114; Time (Mus musculus [38]): 0.8 s; Time (Mus musculus [39]): 27 s; Locomotor activity (Mus musculus [40]): 18; Time (Mus musculus [41]): 0.6 s; Locomotor activity (Mus musculus [42]): 12; Locomotor activity (Mus musculus [43]): 115 |
| CCCN(CCC)C1CCc2cccc(O)c2C1 (centres undefined) [8-OH-DPAT] | – | – | < 6.00 | – | – | – | – | – | – | – | – | – | – | – | – | – | – | ED50 (Rattus norvegicus [44]): 0.005 µmol/kg; ED50 (Rattus norvegicus [45]): 2.25 µmol/kg |
| CN1CCc2cccc3c2[C@H]1Cc1ccc(O)c(O)c1-3 [APOMORPHINE] | – | – | – | – | – | – | – | – | – | – | – | – | – | – | – | – | – | ED50 (Rattus norvegicus [29]): 0.03 µmol/kg |
| CN(C)CCCN1c2ccccc2Sc2ccc(Cl)cc21 [CHLORPROMAZINE] | 5 | – | – | – | – | – | – | – | – | – | – | – | – | – | – | – | – | – |

From ChEMBL document CHEMBL1127015, “Centrally acting serotonergic and dopaminergic agents. 1. Synthesis and structure-activity relationships of 2,3,3a,4,5,9b-hexahydro-1H-benz[e]indole derivatives” (J Med Chem, 1993)
